pEC50: −log10 of the molar value. *1 amine or outer side, *2 acyl side, *3 side chain or, on linkers, in order; H or OH if unused. Where a SMILES comes first, the peptide text is derived from it. Bridges are numbered along the chain shown (N, C = ends). Side-chain parts run from the residue outwards. [ ]: non-standard residue; d: D form. The star is where a group is joined. C20 diacid = O=C(O)CCCCCCCCCCCCCCCCCCC(=O)*; γGlu = O=C(O)[C@H](CCC(=O)[*:2])N[*:1]; AEEA = NCCOCCOCC(=O)O; Aib = CC(C)(N)C(=O)O
Columns and labels:
[1] = Kidney homogenate stability (BHS) test; type: in vitro ADME; conditions: normal mouse kidney homogenate, 37° C., read-out: BHS (T1/2 (min))
Procedure: To study the stability of the test compounds in normal mouse kidney homogenate.
1. Before the experiment, the frozen kidney homogenate was thawed in a 37° C. water bath.
2. Test compounds: 10 mM stock solution was diluted with DMSO to prepare 1 mM intermediate solution;
3. test compounds: 1 mM intermediate solution was diluted with DMSO to prepare 50 μM dosing solution;
4. at each time point (0, 10, 30, 60, 120, 180, 240 min), 100 μL of 4% H3PO4 and 800 μL of stop solution were added to precipitate the protein, and mixed thoroughly.
5. The samples were centrifuged at 4000 rpm for 10 min, and 100 μL of supernatant was taken from each well to the plate. The samples were shaken at 800 rpm for approximately 10 min before submitting for LC-MS/MS test.

[2] = molecular target: T1, GLP-1R (Homo sapiens, UniProt P43220); assay: GLP-1R agonist activity test in vitro (cAMP assay); type: cell-based; conditions: HEK293 host cell
T1 construct: host or cells: HEK293
T1 sequence (P43220 24-463): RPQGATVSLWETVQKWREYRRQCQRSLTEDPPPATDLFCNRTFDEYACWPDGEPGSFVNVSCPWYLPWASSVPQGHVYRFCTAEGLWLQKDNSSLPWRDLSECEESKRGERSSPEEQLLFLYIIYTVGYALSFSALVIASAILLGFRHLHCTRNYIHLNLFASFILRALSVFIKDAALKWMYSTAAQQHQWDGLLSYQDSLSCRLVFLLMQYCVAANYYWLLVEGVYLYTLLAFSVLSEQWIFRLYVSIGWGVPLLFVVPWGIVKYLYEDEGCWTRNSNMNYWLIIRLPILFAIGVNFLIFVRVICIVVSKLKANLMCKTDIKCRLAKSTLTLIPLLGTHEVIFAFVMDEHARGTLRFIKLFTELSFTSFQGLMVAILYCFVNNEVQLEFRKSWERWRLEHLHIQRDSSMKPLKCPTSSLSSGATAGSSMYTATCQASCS
Procedure: The cell strains were constructed by Shanghai WuXi AppTec.
The test compound was serially diluted 4-fold with 10 points. The initial concentration was 30 μM, and the dilution was completed with Bravo.
1) 100 nL of the compound was transferred to OptiPlate-384 plate using Echo.
7) The GLP-1R/GIPR cell concentration was diluted to 2.0*10^5/mL with the experimental buffer.
8) […] of the diluted cell suspension was transferred into the OptiPlate-384 plate.
9) The diluted cell suspension was incubated at room temperature for 30 minutes.
2) 10 μL of cAMP detection reagent was added.
3) The OptiPlate-384 plate was covered with TopSeal-A film and incubated at room temperature for 60 minutes.
TopSeal-A was removed and read in EnVision.

[3] = Plasma protein binding (PPB) test, mouse; type: in vitro ADME
Procedure: To study the binding of the test compounds to human/mouse plasma albumin.
1. Matrix preparation: On the day of the experiment, the plasma was thawed in cold water and centrifuged at 3220 rpm for 5 min to remove all blood clots. The pH of the obtained plasma was measured and adjusted to 7.4±0.1 using 1% phosphoric acid or 1N sodium hydroxide as needed.
2. Dilution steps of the test compounds: The test compounds were dissolved in dimethyl sulfoxide (DMSO) to prepare stock solutions at concentrations of 10 mM and 2 mM, respectively. A 40 μM working solution was prepared by diluting 2 μL of the stock solution (2 mM) with 98 μL of DMSO. A 400 μM working solution of the control compound was prepared by diluting 10 μL of the stock solution with 240 μL of DMSO. The working solution of the compound (5 μL) was mixed with the blank matrix (995 μL) at a ratio of 1:200 to prepare the loading matrix.
3.1 An equal amount of 30 μL of the loading matrix (n=2) was transferred to the sample collection plate to prepare samples of time 0 (TO) for residue determination. The samples were immediately matched to the corresponding blank buffer in a final volume of 60 μL with a 1:1 volume ratio of plasma to buffer in each well. Then, 60 μL of 4% H3PO4 in H2O and 480 μL of stop solution containing an internal standard were then added to the TO samples of the test compounds. They were then stored at 2-8° C. with other samples pending for further processing.
3.2 The remaining plasma samples were pre-incubated in a carbon dioxide incubator at 37±1° C. for 30 min. The prepared protein-free samples (F samples) and loading matrix samples (230 μL) were transferred to polycarbonate tubes (n=2) and ultracentrifuged at 37° C. and 155000×g (35000 rpm) for 4 hours.
3.3 To prepare T samples (test samples), an additional matrix-containing sample was transferred to a separate 96-well plate (sample incubation plate) and incubated at 37° C. for 4 hours.
3.4 After centrifugation, 30 μL of protein-free sample and 30 μL of T sample were transferred from the second layer of supernatant (below the upper layer) to a new sample collection plate. Each sample was mixed with the corresponding blank buffer or matrix in a final volume of 60 μL with a matrix:buffer volume ratio of 1:1. 60 μL of 4% H3PO4 aqueous solution and 480 μL of stop solution (containing internal standard) were added to all samples. The mixture was centrifuged at 4000 rpm for 20 min, and 100 μL of the supernatant of each sample was taken for LC-MS/MS analysis.

[4] = Plasma stability (PLS) test, human plasma; type: in vitro ADME; conditions: up to 120 min, read-out: PLS (H/M) T1/2, H; for half-life at 2 μM: pH 7.4, 37° C.
[5] = Pharmacokinetic evaluation in cynomolgus monkeys; type: in vivo; conditions: cynomolgus monkey, 0.02 mg/kg, single SC 0.02 mpk; for half-life: read-out: Half-life T1/2 (converted); for AUC(0-t): read-out: SC Concentration Integral AUC0-240 h
Procedure: To test the pharmacokinetics of compounds in cynomolgus monkeys in vivo
The pharmacokinetic characteristics of the compounds in mammals after intravenous injection and subcutaneous injection were tested according to the standard protocol. In the experiment, the candidate compounds were formulated into clear solutions, and a single subcutaneous injection (SC, 0.02 mpk) was given to the cynomolgus monkeys. The vehicle for subcutaneous injection was citrate buffer (20 mM, pH=7). Whole blood was collected and prepared to obtain plasma. Drug concentration was analyzed by LC-MS/MS method, and pharmacokinetic parameters were calculated by Phoenix WinNonlin software.

[6] = Pharmacokinetic evaluation in SD rats; type: in vivo; conditions: rat, 0.048 mg/kg, single SC 0.048 mpk; for half-life: read-out: Half-life T1/2 (converted); for AUC(0-t): read-out: SC Concentration Integral AUC0-72 h; for Cmax: read-out: Maximum Plasma Concentration
Procedure: To test the pharmacokinetics of compounds in SD rats in vivo
The pharmacokinetic characteristics of the compounds in rodents after subcutaneous injection were tested according to the standard protocol. In the experiment, the candidate compounds were formulated into clear solutions, and a single subcutaneous injection (SC, 0.048 mpk) was given to the rats. The injection vehicle was citrate buffer (20 mM, pH=7). Whole blood was collected and prepared to obtain plasma. Drug concentration was analyzed by LC-MS/MS method, and pharmacokinetic parameters were calculated by Phoenix WinNonlin software.

[7] = GLP-IR Agonist Activity EC50 (−) 1% HSA, without 1% HSA

CC[C@H](C)[C@H](NC(=O)[C@H](CC(C)C)NC(=O)[C@H](Cc1c[nH]c2ccccc12)NC(=O)[C@@H]1CCC(=O)NCCCC[C@H](NC(=O)[C@H](CCC(N)=O)NC(=O)[C@H](C)NC(=O)[C@H](CCCCNC(=O)COCCOCCNC(=O)COCCOCCNC(=O)CC[C@H](NC(=O)CC[C@H](NC(=O)CCCCCCCCCCCCCCCCCCC(=O)O)C(=O)O)C(=O)O)NC(=O)[C@H](CCCCN)NC(=O)[C@H](CC(=O)O)NC(=O)[C@H](CC(C)C)NC(=O)C(C)(C)NC(=O)[C@@H](NC(=O)[C@H](CO)NC(=O)[C@H](Cc2ccc(O)cc2)NC(=O)[C@H](CC(=O)O)NC(=O)[C@H](CO)NC(=O)[C@@H](NC(=O)[C@H](Cc2ccccc2)NC(=O)[C@@H](NC(=O)CNC(=O)[C@H](CCC(=O)O)NC(=O)C(C)(C)NC(=O)[C@@H](N)Cc2ccc(O)cc2)[C@@H](C)O)[C@@H](C)O)[C@@H](C)CC)C(=O)N[C@@H](C)C(=O)N[C@@H](Cc2ccccc2)C(=O)N[C@@H](C(C)C)C(=O)N1)C(=O)N[C@@H](C)C(=O)NCC(=O)NCC(=O)N1CCC[C@H]1C(=O)N[C@@H](CO)C(=O)N[C@@H](CO)C(=O)NCC(=O)N[C@@H](C)C(=O)N1CCC[C@H]1C(=O)N1CCC[C@H]1C(=O)N1CCC[C@H]1C(=O)N[C@@H](CO)C(N)=O [WX-002] (H-Y[Aib]EGTFTSDYSI[Aib]LDKK([AEEA-AEEA-γGlu-γGlu-C20 diacid])AQKAFVEWLIAGGPSSGAPPPS-NH2; lactam 20-24)
half-life ([1]; tissue homogenate): 20 min | pEC50 [2, 7]: 10.28 | fraction unbound ([3]; ultracentrifugation, read-out: PPB % unbound (H/M)): 0.0021 | half-life ([4]; 2 μM, 37° C.): > 4.82 h | Cmax ([5]; in vivo): 33 nM | Tmax ([5]; in vivo): 29 h | half-life ([5]; in vivo): 81 h | AUC(0-t) ([5]; in vivo): 4.58 µM·h | half-life ([6]; in vivo): 17 h | AUC(0-t) ([6]; in vivo): 1.32 µM·h | Cmax ([6]; plasma): 14 nM

CC[C@H](C)[C@H](NC(=O)[C@H](CC(C)C)NC(=O)[C@H](Cc1c[nH]c2ccccc12)NC(=O)[C@@H]1CCC(=O)NCCCC[C@H](NC(=O)[C@H](CCC(N)=O)NC(=O)[C@H](C)NC(=O)[C@H](CCCCNC(=O)COCCOCCNC(=O)COCCOCCNC(=O)CC[C@H](NC(=O)CCCCCCCCCCCCCCCCCCC(=O)O)C(=O)O)NC(=O)[C@H](CCCCN)NC(=O)[C@H](CC(=O)O)NC(=O)[C@H](CC(C)C)NC(=O)C(C)(C)NC(=O)[C@@H](NC(=O)[C@H](CO)NC(=O)[C@H](Cc2ccc(O)cc2)NC(=O)[C@H](CC(=O)O)NC(=O)[C@H](CO)NC(=O)[C@@H](NC(=O)[C@H](Cc2ccccc2)NC(=O)[C@@H](NC(=O)CNC(=O)[C@H](CCC(=O)O)NC(=O)C(C)(C)NC(=O)[C@@H](N)Cc2ccc(O)cc2)[C@@H](C)O)[C@@H](C)O)[C@@H](C)CC)C(=O)N[C@@H](C)C(=O)N[C@@H](Cc2ccccc2)C(=O)N[C@@H]([C@@H](C)CC)C(=O)N1)C(=O)N[C@@H](C)C(=O)NCC(=O)NCC(=O)N1CCC[C@H]1C(=O)N[C@@H](CO)C(=O)N[C@@H](CO)C(=O)NCC(=O)N[C@@H](C)C(=O)N1CCC[C@H]1C(=O)N1CCC[C@H]1C(=O)N1CCC[C@H]1C(=O)N[C@@H](CO)C(N)=O [WX-006] (H-Y[Aib]EGTFTSDYSI[Aib]LDKK([AEEA-AEEA-γGlu-C20 diacid])AQKAFIEWLIAGGPSSGAPPPS-NH2; lactam 20-24)
half-life [1]: 234 min | pEC50 [2, 7]: 10.29 | fraction unbound at 4 h, 0.2 μM ([3]; pH 7.4, ultracentrifugation): 0.0035 | half-life at 2 μM [4]: > 4.82 h | Cmax ([5]; plasma): 30 nM | Tmax ([5]; plasma): 29 h | half-life ([5]; plasma): 72.4 h | AUC(0-t) ([5]; plasma): 3.64 µM·h | half-life ([6]; plasma): 10 h | Cmax ([6]; plasma): 16 nM | AUC(0-t) ([6]; plasma): 0.846 µM·h

CC[C@H](C)[C@H](NC(=O)[C@H](CC(C)C)NC(=O)[C@H](Cc1c[nH]c2ccccc12)NC(=O)[C@@H]1CCC(=O)NCCCC[C@H](NC(=O)[C@H](CCC(N)=O)NC(=O)[C@H](C)NC(=O)[C@H](CCCCNC(=O)COCCOCCNC(=O)COCCOCCNC(=O)CC[C@H](NC(=O)CCCCCCCCCCCCCCCCCCC(=O)O)C(=O)O)NC(=O)[C@H](CCCCN)NC(=O)[C@H](CC(=O)O)NC(=O)[C@H](CC(C)C)NC(=O)C(C)(C)NC(=O)[C@@H](NC(=O)[C@H](CO)NC(=O)[C@H](Cc2ccc(O)cc2)NC(=O)[C@H](CC(=O)O)NC(=O)[C@H](CO)NC(=O)[C@@H](NC(=O)[C@H](Cc2ccccc2)NC(=O)[C@@H](NC(=O)CNC(=O)[C@H](CCC(=O)O)NC(=O)C(C)(C)NC(=O)[C@@H](N)Cc2ccc(O)cc2)[C@@H](C)O)[C@@H](C)O)[C@@H](C)CC)C(=O)N[C@@H](C)C(=O)N[C@@H](Cc2ccccc2)C(=O)N[C@@H](C(C)C)C(=O)N1)C(=O)N[C@@H](C)C(=O)NCC(=O)NCC(=O)N1CCC[C@H]1C(=O)N[C@@H](CO)C(=O)N[C@@H](CO)C(=O)NCC(=O)N[C@@H](C)C(=O)N1CCC[C@H]1C(=O)N1CCC[C@H]1C(=O)N1CCC[C@H]1C(=O)N[C@@H](CO)C(N)=O [WX-001] (H-Y[Aib]EGTFTSDYSI[Aib]LDKK([AEEA-AEEA-γGlu-C20 diacid])AQKAFVEWLIAGGPSSGAPPPS-NH2; lactam 20-24)
half-life [1]: 14 min | pEC50 ([2]; GLP-IR Agonist Activity EC50 (+) 1% HSA, with 1% HSA): 8.44 | pEC50 [2, 7]: 10.85 | half-life at 2 μM [4]: > 4.82 h | Cmax ([5]; plasma): 30 nM | Tmax ([5]; plasma): 21 h | half-life ([5]; plasma): 80 h | AUC(0-t) ([5]; plasma): 3.97 µM·h | half-life ([6]; plasma): 12 h | Cmax ([6]; plasma): 22 nM | AUC(0-t) ([6]; plasma): 0.728 µM·h

From patent US20240067702A1, “LACTAM-MODIFIED P[…]” (DONGBAO PURPLE STAR (HANGZHOU) BIOPHARMACEUTICAL CO., LTD., priority 2020, published 2024)
